This is an account of results in patent EP3820512B1, “IMMUNOMODULATING COMPOSITIONS COMPRISING OLIGOSACCHARIDE DERIVATIVES” (priority 2018, dated 2020).

Experiment [1] deals with THP-1 (human monocytic) cells. The experiment can be described thus: Cytokine response (IL-1β, TNF-α, IL-10) of THP-1 cells treated with compounds. Type of experiment: cell-based. Conditions: 100-200 µM. The protocol:
When THP-1 (human monocytic) cells were treated with 100-200 µM of compounds 8, 14, 17, 23, 29, and 32, they produced an increased IL-1β and TNF-α response, decreased anti-inflammatory cytokine IL-10 (FIG. 4).

A further experiment concerns the target T1, TLR1/2 (Homo sapiens, UniProt O60603).
T1 construct: endogenous in cells; host or cells: hPBMC (human peripheral blood monocytes)
The experiment can be described thus: TLR1/2 modulation: IL-6 ELISA in hPBMC with TLR1/2 ligand Pam3CSK4. Format: cell-based. The source says:
Compound 8 modulates the TLR1/2 activities in a concentration dependent manner.

Experiment [2] concerns LPS induced lung injury in mice. The experiment can be described thus: LPS-induced ALI model. Format: in vivo, C57BL/6 mice. The source says: Male C57BL/6 mice (Jackson Laboratories,) 12-15 weeks old, 25 - 28 gms, housed up to 5 per cage were used.
The lungs were sectioned for histopathological assessment after H/E staining while the BAL fluid was used to detect total cell counts (neutrophils and macrophages) and measure protein (that exudes by leakage).

Experiment [3] concerns hyperoxia induced BPD in mouse pups. As to the kind of experiment: Hyperoxia-exposed BPD mouse model (newborn pups). Type of experiment: in vivo. The source says: Neonatal mice and humans undergo similar stages of lung development but differ with respect to the duration of each stage and its temporal relationship to gestational age. The lungs of the mouse born at term are in the saccular stage and are surfactant sufficient; this can be considered somewhat akin to a human preterm neonate in the same stage of lung development that has been exposed to a full complement of antenatal steroids (which is known to enhance surfactant production). In terms of mimicking the human condition, the most successful hyperoxia models are those that limit exposure to hyperoxia to the saccular stage of pulmonary development. The mouse BPD model involves exposing newborn mice (postnatal day 1 or PN1) to 100% oxygen till PN4 followed by recovery in room air (RA) for another 10 days.
After the recovery period, their lungs were harvested and processed for quantitative PCR, western blotting, histopathology and ELISA.
After the recovery period, their lungs were harvested and processed for quantitative PCR, western blotting and histopathology and ELISA.
BPD is characterized by large simplified alveoli, inflammation, increased cell death, decreased cell proliferation, dysmorphic capillary configuration, and variable interstitial cellularity and/or fibroproliferation. […] This is determined by measuring the alveolar chord length, septal thickness and radial alveolar count (RAC). In BPD, the alveolar area increases which is characterized by increase in the diameter of the alveolar sacs, the septa become thickened (thus interfering in gaseous exchange) and the RAC, a parameter used to assess the complexity of terminal respiratory unit by pulmonologists, decreases as a result of arrested lung development.

The next experiment deals with TLR4 (Homo sapiens, UniProt O00206). As to the kind of experiment: TLR4 modulation: IL-1β ELISA in hPBMC, alone or with TLR4 ligand LPS. Type of experiment: cell-based. More on the design: endogenous in cells. The text has this: Compound 8 modulates the TLR4 activities in a concentration dependent manner.
Sequence of TLR4 (O00206 24-839): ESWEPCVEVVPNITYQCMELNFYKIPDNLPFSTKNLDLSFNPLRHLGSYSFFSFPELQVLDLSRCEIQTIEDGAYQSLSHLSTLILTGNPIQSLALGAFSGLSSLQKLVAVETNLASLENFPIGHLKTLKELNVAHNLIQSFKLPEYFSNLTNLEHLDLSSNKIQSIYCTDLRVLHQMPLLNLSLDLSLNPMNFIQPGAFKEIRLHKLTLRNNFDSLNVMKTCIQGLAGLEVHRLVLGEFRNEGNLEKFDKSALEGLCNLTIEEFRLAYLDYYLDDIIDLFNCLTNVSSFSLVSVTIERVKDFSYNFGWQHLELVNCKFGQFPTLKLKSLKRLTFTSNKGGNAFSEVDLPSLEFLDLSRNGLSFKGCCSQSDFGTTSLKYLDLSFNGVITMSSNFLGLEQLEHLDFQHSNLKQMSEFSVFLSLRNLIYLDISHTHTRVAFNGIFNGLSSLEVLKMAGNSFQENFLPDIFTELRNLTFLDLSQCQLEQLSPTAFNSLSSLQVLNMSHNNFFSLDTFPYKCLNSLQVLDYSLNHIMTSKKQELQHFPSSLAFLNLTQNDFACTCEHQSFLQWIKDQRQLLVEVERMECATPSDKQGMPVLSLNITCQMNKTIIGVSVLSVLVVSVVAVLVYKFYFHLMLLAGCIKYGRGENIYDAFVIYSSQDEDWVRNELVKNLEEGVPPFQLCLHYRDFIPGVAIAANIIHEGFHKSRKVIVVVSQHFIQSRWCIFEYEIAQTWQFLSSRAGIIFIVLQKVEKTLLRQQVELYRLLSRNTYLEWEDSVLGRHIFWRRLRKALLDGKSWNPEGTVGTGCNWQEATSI
Sequence of TLR4 (Q9Y6Y9 17-160 partner limits assumed): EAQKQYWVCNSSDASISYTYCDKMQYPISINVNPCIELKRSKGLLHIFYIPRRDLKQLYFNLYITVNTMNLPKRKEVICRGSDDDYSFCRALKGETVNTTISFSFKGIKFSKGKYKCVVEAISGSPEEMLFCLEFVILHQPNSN
Background: An ELISA detects its analyte on a solid surface through an enzyme-linked reagent.

T1 sequence (O60603 21-784): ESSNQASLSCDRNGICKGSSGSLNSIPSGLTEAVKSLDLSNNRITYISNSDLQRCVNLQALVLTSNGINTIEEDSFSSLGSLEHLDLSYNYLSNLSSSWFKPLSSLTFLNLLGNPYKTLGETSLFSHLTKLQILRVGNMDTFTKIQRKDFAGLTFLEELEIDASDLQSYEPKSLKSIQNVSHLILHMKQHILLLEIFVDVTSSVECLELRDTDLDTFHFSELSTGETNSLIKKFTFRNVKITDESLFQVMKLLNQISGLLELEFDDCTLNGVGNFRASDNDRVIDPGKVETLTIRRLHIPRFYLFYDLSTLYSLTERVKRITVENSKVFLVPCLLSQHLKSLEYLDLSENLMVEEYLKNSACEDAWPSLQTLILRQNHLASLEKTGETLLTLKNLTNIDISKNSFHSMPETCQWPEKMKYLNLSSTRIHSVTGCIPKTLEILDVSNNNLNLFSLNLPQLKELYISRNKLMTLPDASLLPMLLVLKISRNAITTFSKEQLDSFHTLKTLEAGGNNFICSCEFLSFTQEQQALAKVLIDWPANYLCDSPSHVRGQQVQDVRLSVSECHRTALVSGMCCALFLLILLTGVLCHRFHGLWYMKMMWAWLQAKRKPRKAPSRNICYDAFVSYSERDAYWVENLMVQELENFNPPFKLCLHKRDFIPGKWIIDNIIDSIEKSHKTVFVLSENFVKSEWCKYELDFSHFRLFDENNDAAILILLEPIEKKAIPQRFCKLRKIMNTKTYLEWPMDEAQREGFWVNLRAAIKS

On to `CC(=O)N[C@H]1[C@H](Oc2ccc([N+](=O)[O-])cc2)O[C@H](CO)[C@@H](O)[C@@H]1O` [Compound 8, p-Nitrophenyl 2-acetamido-2-deoxy-β-D-glucopyranoside], for which, in experiment [1], the IL-1β response entry was “increased”, the TNF-α response result is given as “increased” and the “anti-inflammatory cytokine IL-10” value was “decreased”. Besides, on TLR1/2 (0.1 µM to <1 µM, in combination with Pam3CSK4, hPBMC, 24h, ELISA), the IL-6 protein level result is reported as “downregulate”. Further, the “production of IL-6” value at TLR1/2 (1.0, 10 and 100 µM, in combination with CL075, hPBMC) is “significantly stimulated”. For the same compound, in experiment [2] (IP 10mg/kg at 4h and 12h post LPS, sacrifice after 24 h), the “protection against LPS induced lung injury” value is reported as “significant protection”. In experiment [2] (IP injection), the LPS-induced lung inflammation entry is listed as “ameliorated”. For the same compound, in experiment [3] (10mg/kg, ELISA (FIG. 26)), the IFN-Y entry is on record as “decreases”, the IL-1β entry is reported as “decreases”, the IL-6 result was “decreases” and the IL-17 entry was “decreases”. For the same compound, in experiment [3] (10mg/kg, ELISA (FIG. 26)), the MCP-1 entry is listed as “decreases”, the MIP-2 entry is “decreases” and the TNF-α entry is given as “decreases”. In addition, in experiment [3] (10mg/kg, ELISA (FIG. 26H)), the “anti-inflammatory cytokine IL-10” value is reported as “increase”. The “hyperoxia induced BPD” value in experiment [3] (IP and IV, saline solution, 5mg/kg or 10 mg/kg on PN2 and PN4 (FIG. 24)) is on record as “prevent”. In experiment [3] (IP injection (FIG. 25)), the chord length entry is listed as “improvement”, the radial alveolar count entry was “improvement” and the septal thickness entry is “improvement”. In addition, the “Inflammatory cytokines in lung tissue and serum” value in experiment [3] (after injections) is listed as “decreased”. The “TLR4 inhibition in vivo” value in experiment [3] (neonatal pups with BPD) is “inhibit”. In experiment [3] (saline (IV) and nanosuspension (IN) formulation), the lung architecture entry was “restored”. On TLR4 (0.1 µM to <1 µM, alone or in combination with LPS, 24h, ELISA), the IL-1β protein level result is given as “downregulate”. The “production of IL-1β” value on TLR4 (1.0 µM, alone and in combination with LPS) is listed as “significantly stimulated”.
